From ChEMBL document CHEMBL3045846, “Experimental validation and docking studies of flavone derivatives on aldose reductase involved in diabetic retinopathy, neuropathy, and nephropathy” (Med Chem Res, 2011)

molecular target: Aldo-keto reductase family 1 member B1 (Rattus norvegicus, UniProt P07943); assay: Inhibition of Rattus norvegicus (rat) aldose reductase isolated from lens using DL-glyceraldehyde as substrate after 30 min by fluorometric analysis

Compound | IC50 [nM]
O=c1cc(-c2ccc(O)cc2)oc2c([C@@H]3O[C@H](CO)[C@@H](O)[C@H](O)[C@H]3O)c(O)cc(O)c12 [VITEXIN] | 2030

molecular target: Aldo-keto reductase family 1 member B1 (Homo sapiens, UniProt P15121); assay: Inhibition of aldose reductase (unknown origin)

Compound | IC50 [nM]
O=C(O)/C=C/c1ccc(O)cc1 [COUMARIC ACID] | 140
O=c1cc(-c2ccc(O)c(O)c2)oc2cc(O)c([C@@H]3O[C@H](CO)[C@@H](O)[C@H](O)[C@H]3O)c(O)c12 [ISOORIENTIN] | 1910
COc1cc(-c2cc(=O)c3c(O)cc(O)cc3o2)cc(OC)c1O [TRICIN] | 2030

molecular target: Aldo-keto reductase family 1 member B1 (Bos taurus) (UniProt P16116); assay: Inhibition of Bos taurus (bovine) aldose reductase isolated from lens using DL-glyceraldehyde as substrate at 1.8 mM by UV-Vis spectrophotometric analysis

Compound | inhibition [%]
O=c1cc(-c2ccccc2Cl)oc2ccccc12 | 60
Cc1c(Cl)cc2c(=O)cc(-c3ccccc3)oc2c1I | 80
O=c1cc(-c2ccccc2)oc2c(I)cc(Cl)cc12 | 70
Cc1c(Cl)cc2c(=O)cc(-c3ccc(Cl)cc3Cl)oc2c1I | 80
O=c1cc(-c2ccc(Cl)cc2Cl)oc2c(I)cc(Cl)cc12 | 80
